Laboratory results taken from patent US6919334B2, “Antidepressant azaheterocyclymethyl derivatives of 4,5-dihydroimidazo[1,4,5-de][1,4]benzoxazine” (Wyeth, priority 2002, dated 2005).

Key:
serotonin transporter = molecular target: T1, serotonin transporter (Rattus norvegicus, UniProt P31652); assay: 3H-paroxetine displacement, affinity for the serotonin transporter; type: binding
T1 construct: displace ^3H-paroxetine from male rat frontal cortical membranes; from tissue; host or cells: male rat frontal cortex membranes
T1 sequence (P31652 whole entry): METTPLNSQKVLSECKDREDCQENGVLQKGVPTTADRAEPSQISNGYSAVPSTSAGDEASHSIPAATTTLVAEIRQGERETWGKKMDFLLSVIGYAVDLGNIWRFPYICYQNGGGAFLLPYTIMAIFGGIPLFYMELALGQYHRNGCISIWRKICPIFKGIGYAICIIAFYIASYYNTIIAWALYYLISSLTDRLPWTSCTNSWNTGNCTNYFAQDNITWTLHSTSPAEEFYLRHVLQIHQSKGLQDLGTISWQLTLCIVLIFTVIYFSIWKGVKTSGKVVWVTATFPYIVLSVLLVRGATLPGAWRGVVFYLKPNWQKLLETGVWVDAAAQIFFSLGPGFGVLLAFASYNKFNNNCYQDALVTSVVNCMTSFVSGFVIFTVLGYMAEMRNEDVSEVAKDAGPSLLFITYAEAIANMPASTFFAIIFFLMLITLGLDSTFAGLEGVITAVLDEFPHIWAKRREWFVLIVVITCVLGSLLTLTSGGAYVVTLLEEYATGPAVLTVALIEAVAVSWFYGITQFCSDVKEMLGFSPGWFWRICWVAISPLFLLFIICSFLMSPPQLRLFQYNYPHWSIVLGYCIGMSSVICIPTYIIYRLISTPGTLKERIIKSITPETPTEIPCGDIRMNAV

[1] = molecular target: T2, cloned human 5-HT1A receptors (Homo sapiens, UniProt P08908); assay: 35S-GTPγS binding assay, antagonist activity at 5-HT1A receptors; type: biochemical; details: reversal of agonist 8-OHDPAT; for IC50: membranes with cloned human 5-HT1A, read-out: 5-HT1A Function IC50; for 5-HT1A Function (Imax), maximum inhibitory effect: value in parentheses
T2 construct: expressed in transfected cells
T2 sequence (P08908 1-422): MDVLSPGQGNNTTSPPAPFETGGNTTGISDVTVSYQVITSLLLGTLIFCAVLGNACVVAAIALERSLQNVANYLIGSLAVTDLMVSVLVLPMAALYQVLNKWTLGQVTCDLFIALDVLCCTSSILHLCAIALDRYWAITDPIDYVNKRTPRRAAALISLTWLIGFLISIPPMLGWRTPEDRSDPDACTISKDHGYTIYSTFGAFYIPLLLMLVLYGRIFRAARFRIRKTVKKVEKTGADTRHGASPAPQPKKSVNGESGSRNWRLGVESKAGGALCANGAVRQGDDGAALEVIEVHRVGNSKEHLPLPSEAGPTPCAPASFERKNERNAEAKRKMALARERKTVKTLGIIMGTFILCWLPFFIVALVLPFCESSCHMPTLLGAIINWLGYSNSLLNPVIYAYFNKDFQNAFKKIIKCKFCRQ
Protocol: Antagonist activity at 5-HT1A receptors was established by using a ^35S-GTPγS binding assay similar to that used by Lazareno and Birdsall (Br. J. Pharmacol. 109: 1120, 1993), in which the test compound's ability to affect the binding of ^35S-GTPγS to membranes containing cloned human 5-HT1A receptors was determined. Agonists produce an increase in binding whereas antagonists produce no increase but rather reverse the effects of the standard agonist 8-OHDPAT. The test compound's maximum inhibitory effect is represented as the Imax, while its potency is defined by the IC50.

human 5-HT1A receptors = molecular target: T3, human 5-HT1A receptors (Homo sapiens, UniProt P08908); assay: [3H] 8-OHDPAT displacement from 5-HT1A receptor (transfected CHO cells); type: binding; details: percent displacement of [3H] 8-OHDPAT at 1 micromolar; CHO cells with human 5-HT1A
T3 construct: expressed in transfected cells; host or cells: CHO cells, stably transfected
T3 sequence (P08908 1-422): T2 sequence (P08908 1-422)
Source text: Affinity for the serotonin 5-HT1A receptor was established by testing the claimed compound's ability to displace [^3H] 8-OHDPAT (dipropylaminotetralin) from the 5-HT1A serotonin receptor following a modification of the procedure of Hall et al., J. Neurochem. 44, 1685 (1985), which utilizes CHO cells stably transfected with human 5-HT1A receptors.

Compound	Ki (serotonin transporter)	IC50 [1]	5-HT1A Function (Imax), maximum inhibitory effect [1]	5-HT1A Receptor Affinity % @ 1 μM (human 5-HT1A receptors)	melting point
O=c1[nH]c2cccc3c2n1C(CN1CC=C(c2c[nH]c4ccc(F)cc24)CC1)CO3 (stereo not drawn) [Example 2]	2.08 nM	300 nM	30	36%	152 to 155 °C
O=c1[nH]c2cccc3c2n1C(CN1CC=C(c2c[nH]c4c(F)cccc24)CC1)CO3 (stereo not drawn) [Example 5, 4-{[4-(7-Fluoro-1H-indol-3-yl)-3,6-dihydropyridin-1(2H)-yl]methyl}-4,5-dihydroimidazo[1,5,4-de][1,4]benzoxazin-2(1H)-one]	1.23 nM	750 nM	100	48%	> 120 °C
N#Cc1ccc2[nH]cc(C3=CCN(CC4COc5cccc6[nH]c(=O)n4c56)CC3)c2c1 (stereo not drawn) [Example 4, 3-{1-[(2-Oxo-1,2,4,5-tetrahydroimidazo[1,5,4-de][1,4]benzoxazin-4-yl)methyl]-1,2,3,6-tetrahydropyridin-4-yl}-1H-indole-5-carbonitrile]	3.55 nM	750 nM	100	49%	> 160 °C
O=c1[nH]c2cccc3c2n1C(CN1CC=C(c2c[nH]c4ccccc24)CC1)CO3 (stereo not drawn) [Example 1, 4-{[4-(1H-indol-3-yl)-3,6-dihydropyridin-1(2H)-yl]methyl}-4,5-dihydroimidazo[1,5,4-de][1,4]benzoxazin-2(1H)-one]	1.07 nM	300 nM	30	94%	147 to 149 °C
Cc1nc2cccc3c2n1C(CN1CC=C(c2c[nH]c4ccccc24)CC1)CO3 (stereo not drawn) [Example 6, 4-{[4-(1H-indole-3-yl)-3,6-dihydropyridin-1(2H)-yl]methyl}-2-methyl-4,5-dihydroimidazo[1,5,4-de][1,4]benzoxazine]	1.86 nM	450 nM	100	39%	222 to 225 °C
O=c1[nH]c2cccc3c2n1C(CN1CC=C(c2c[nH]c4ccc(Cl)cc24)CC1)CO3 (stereo not drawn) [Example 3, 4-{[4-(5-chloro-1H-indol-3-yl)-3,6-dihydropyridin-1(2H)-yl]methyl}-4,5-dihydroimidazo[1,5,4-de][1,4]benzoxazin-2(1H)-one]	15 nM	300 nM	30	81%	153 to 155 °C
